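48-hour exposure; five concentrations; linearly interpolated endpoints. TGI: concentration producing complete growth inhibition.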
Legend:
Assay in all cases: inhibition of tumour cell growth, NCI panel, 48 h
[1] = test system: SK-MEL-5 melanoma
[2] = test system: SK-MEL-2 melanoma
[3] = test system: RXF 393 renal
[4] = test system: NCI-H226 lung
[5] = test system: UO-31 renal
[6] = test system: SF-295 CNS
[7] = test system: UACC-62 melanoma
[8] = test system: SNB-75 CNS
[9] = test system: HCC-2998 colon
[10] = test system: HL-60(TB) leukemia
[11] = test system: RPMI-8226 leukemia
[12] = test system: OVCAR-5 ovarian
[13] = test system: COLO 205 colon
[14] = test system: UACC-257 melanoma
[15] = test system: SN12C renal
[16] = test system: T-47D breast
[17] = test system: MDA-MB-231 breast
[18] = test system: DU-145 prostate
[19] = test system: MDA-MB-435

Structure (SMILES)	TGI [1] [µM]	TGI [2] [µM]	TGI [3] [µM]	TGI [4] [µM]	TGI [5] [µM]	TGI [6] [µM]	TGI [7] [µM]	TGI [8] [µM]	TGI [9] [µM]	TGI [10] [µM]	TGI [11] [µM]	TGI [12] [µM]	TGI [13] [µM]	TGI [14] [µM]	TGI [15] [µM]	TGI [16] [µM]	TGI [17] [µM]	TGI [18] [µM]	TGI [19] [µM]
CCCCCCCC(=O)OCC1OC(OC)C(NC(=O)N(CCCl)N=O)C(O)C1O (stereo not drawn)	35.8	> 57.2	34.3	42.1	45.9	33	14	53.3	30.3	22.3	53.1	97.5	30.8	41.3	26.6	–	–	–	–
O=C(COC(=O)c1cccc2c(=O)c3ccccc3[nH]c12)Nc1ccccc1	42.7	–	97.9	> 100	65.4	> 100	68	> 100	> 100	36.1	83.5	–	51.6	> 100	> 100	–	–	–	–
CCOC(=O)c1ccc(NC(=O)SCCC(=O)O)cc1	–	> 100	> 100	> 100	> 100	> 100	> 100	23.1	> 100	> 100	> 100	> 100	> 100	> 100	> 100	–	–	–	–
Clc1cc2n[se]nc2cc1Cl	> 100	> 100	> 100	–	> 100	> 100	> 100	> 100	> 100	> 100	> 100	> 100	–	> 100	> 100	–	–	–	–
CCC1C(=O)C(O)[C@H]2[C@@H]3C(O)CC4=CC(=O)CC[C@]4(C)[C@H]3CC[C@]12C (stereo partly drawn)	> 50	> 50	–	–	> 50	> 50	> 50	> 50	> 50	> 50	> 50	> 50	> 50	> 50	> 50	> 50	> 50	> 50	> 50
CN1Cc2cc3c(cc2-c2ccccc21)OCO3	> 100	> 100	> 100	–	> 100	> 100	> 100	> 100	> 100	> 100	> 100	> 100	> 100	> 100	> 100	–	–	–	–
NC(N)=NS(=O)(=O)c1ccc(Nc2c3ccccc3nc3c(C(=O)Nc4ccc(S(N)(=O)=O)cc4)ccc(Cl)c23)cc1	> 100	–	> 100	> 100	> 100	> 100	> 100	> 100	> 100	> 100	> 100	> 100	> 100	> 100	> 100	–	–	–	–
CN(Cc1ccccc1)C(=NC#N)N(C)Cc1ccccc1	> 100	> 100	–	–	> 100	> 100	> 100	–	> 100	–	–	–	> 100	> 100	> 100	–	–	–	–
Cc1nn(C)cc1P(=S)(c1ccccc1)c1ccccc1	> 100	> 100	> 100	–	> 100	> 100	> 100	85.1	> 100	41.7	> 100	> 100	> 100	> 100	> 100	–	–	–	–
O=C1C(=Cc2cccc(O)c2)N=C(c2ccccc2)N1n1c(-c2ccccc2)nc2ccccc2c1=O	48	–	83.8	18.9	61.1	65.6	50.9	–	–	54	50.2	78.3	79.7	81.9	> 100	91.7	> 100	74.5	> 100
Cc1nn(-c2nc3ccccc3s2)c2c1C(=O)c1ccccc1-2	> 100	> 100	> 100	–	> 100	> 100	> 100	> 100	> 100	> 100	> 100	> 100	> 100	> 100	> 100	–	–	–	–
COc1ccc2[nH]cc(CCNC(=O)[C@](O)(Cc3cn(C)c4ccccc34)[C@@]3(O)OCC(O)C3O)c2c1 (stereo partly drawn)	> 100	> 100	> 100	> 100	–	> 100	> 100	> 100	> 100	> 100	> 100	> 100	> 100	> 100	> 100	–	–	–	–
O=c1[nH]cnc2c1CCCN2	> 100	> 100	> 100	–	> 100	> 100	> 100	> 100	> 100	> 100	> 100	> 100	> 100	> 100	> 100	–	–	–	–
O=[N+]([O-])c1c(C=Nc2ccccc2)oc(-c2ccc3c(c2)OCO3)c1-c1ccc2c(c1)OCO2	> 100	–	> 100	> 100	> 100	> 100	> 100	> 100	> 100	> 100	> 100	> 100	> 100	> 100	> 100	–	–	–	–
CC(C)(C)OC(=O)C1CC[C@@H](CC(=O)Oc2ccc([N+](=O)[O-])cc2)N1 (stereo partly drawn)	> 100	> 100	> 100	> 100	> 100	> 100	> 100	> 100	> 100	> 100	> 100	> 100	> 100	> 100	> 100	–	> 100	> 100	> 100
